Assay results published in PMC3285657, “Biophysical Characterization and Membrane Interaction of the Two Fusion Loops of Glycoprotein B from Herpes Simplex Type I Virus” (PLoS ONE, 2012).
Residues, ends and D or L forms follow the SMILES beside them.

B1: HB168–186 (peptide)
peptide: VTVSQVWFGHRYSQFMGIF
notes: source: synthetic peptide (solid-phase Fmoc method), purified (purity higher than 98%)

Tests used:
[1] = Lipid mixing assay (NBD-PE/Rho-PE resonance energy transfer); settings: 0.1 mM lipid, 37°C
Description: To investigate the fusogenicity of gB peptides, NBD and Rho labelled PE were used as the donor and acceptor of fluorescence energy transfer. A population of LUVs labelled with both was mixed with a population of unlabelled LUVs and increasing amounts of peptides were added. […] The dependence of the extent of lipid mixing on the peptide to lipid molar ratio was analysed. The fusogenic capacity was monitored by measuring their ability to induce lipid mixing of model membranes composed of DOPG, DOPG/Chol (3/2), DOPC, DOPC/Chol (3/2), POPC/Chol (3/2), and POPC/Chol/SM at various ratios (4/1/1, 2/1/1, 1/1/1).
Figure 2 Ability of peptides to induce lipid mixing. Peptide-promoted membrane fusion as determined by lipid mixing; peptide aliquots were added to 0.1 mM LUVs, containing 0.6% NBD and 0.6% Rho. The increase in fluorescence was measured after the addition of peptide aliquots; reduced Triton-X-100 (0.05% v/v) was referred to as 100% of fusion. In figure is reported the dose dependence of lipid mixing at 37°C: panels A and B HB168–186 and HB254–270 in LUVs of different composition; panels C and D HB168–186 and HB254–270 in LUVs mimicking lipid rafts; panel E HB168–186, HB254–270 and shorter versions in DOPC/Chol LUVs; panel F equimolecular mixtures of peptides HB168–186 and HB254–270 in DOPC/Chol (3/2) and POPC/Chol/SM (2/1/1).
Membrane lipid mixing was monitored using the resonance energy transfer assay (RET) reported by Struck et al.. The assay is based on the dilution of the NBD-PE (donor) and Rho-PE (acceptor). Dilution due to membrane mixing results in an increase in NBD-PE fluorescence. The change in donor emission was monitored as aliquots of peptides were added to vesicles. […] The fluorescence scale was calibrated such that the zero level corresponded to the initial residual fluorescence of the labelled vesicles and the 100% value corresponding to complete mixing of all lipids in the system was set by the fluorescence intensity of vesicles upon the addition of Triton X-100 (0.05% v/v) at the same total lipid concentrations of the fusion assay. […]

[2] = Thioflavin T assay for peptide aggregation; assay type: physicochemical; settings: for Aggregation state in the presence of DOPC/Chol LUVs (ThT fluorescence) / Aggregation state in aqueous medium (ThT fluorescence): peptide 4 µM, 100 mM NaCl, 10 mM Tris–HCl, 25 µM ThT, pH 7.4, 37°C; for Aggregation state in the presence of DOPC/Chol LUVs (ThT fluorescence): 0.1 mM phospholipid; for Aggregation state in aqueous medium (ThT fluorescence): ex 450 nm / em 482 nm; for Oligomerization in aqueous solution / Oligomerization inside / interacting with the membrane: summary in discussion
Description: The peptide's aggregation state in buffer and DOPC/Chol LUVs was assayed using ThT [36], in order to know the possible effects of the peptide aggregation on the membranes. As observed in Figure 4 A–B, the two peptides present a completely different behaviour.
Peptide aggregation was assayed using Thioflavin T (ThT). ThT associates rapidly with aggregated peptides giving rise to a new excitation maximum at 450 nm and an enhanced emission at 482 nm. LUVs in 100 mM NaCl, 10 mM Tris–HCl, 25 µM ThT, pH 7.4 (final phospholipid concentration of 0.1 mM) were titrated with a peptide concentration of 1, 4, 8, 12, 16, 20 µM. Fluorescence was measured before and after the desired amount of peptide was added into the cuvette using a Varian Cary Eclipse fluorescence spectrometer at 37°C. Samples were excited at 450 nm (slit width, 5 nm) and fluorescence emission was recorded at 482 nm (slit width, 5 nm). Aggregation was quantified according to the equation, %A = (Ff−F0)/(Fmax−F0)×100, where Ff is the value of fluorescence after peptide addition, F0 the initial fluorescence in the absence of peptide and Fmax is the fluorescence maximum obtained immediately after peptide addition. Kinetic data were obtained at a concentration of 4 µM.

[3] = Quenching of tryptophan/tyrosines by acrylamide (Stern-Volmer); assay type: physicochemical; settings: peptide 1 µM; for Ksv (M^−1) in buffer: absence of liposomes, F0/F = 1+Ksv [Q]; for Ksv (M^−1) in LUVs: presence of liposomes, peptide/lipid molar ratio 1/200
Excerpt: The observed changes in the characteristics of the tryptophan/tyrosine emission upon binding of peptides HB168–186 and HB254–270 to lipid vesicles indicate their insertion into the hydrophobic region of the bilayers. We also studied the accessibility of the tryptophan/tyrosine residues of membrane-bound peptides towards acrylamide, a neutral, water-soluble, highly efficient quenching molecule, which is unable to penetrate into the hydrophobic core of the lipid bilayer. The more deeply a tryptophan/tyrosine residue is buried, the less strongly it can be quenched by acrylamide. Stern-Volmer plots for the quenching of tryptophan by acrylamide, recorded in the absence and presence of lipid vesicles, are depicted in Figure 6. Fluorescence of tryptophan/tyrosine decreased in a concentration-dependent manner by the addition of acrylamide to the peptide solution both in the absence and presence of liposomes, without other effects on the spectra. However, we can observe a substantial difference between the two peptides.
Aliquots of a 4 M solution of the water-soluble quencher were added to the solution containing the peptide (1 µM) in the absence or presence of liposomes at a peptide/lipid molar ratio of 1/200. The maximal concentration of acrylamide is 0.2 mmol/ml. Tryptophan fluorescence was measured with an excitation wavelength of 295 nm, to reduce acrylamide absorbance (and the resulting inner filter effect), and emission at a wavelength of 340 nm, to eliminate interference from the Raman band of water and tyrosine fluorescence was measured with an excitation wavelength of 274 nm, and emission at a wavelength of 305. The data were analyzed according to the Stern-Volmer equation [68], F0/F = 1+Ksv [Q], where F0 and F represent the fluorescence intensities in the absence and the presence of the quencher (Q), respectively, and Ksv is the Stern-Volmer quenching constant, which is a measure of the accessibility of tryptophan to acrylamide. […] Accordingly, Ksv is determined by the amount of non-vesicle-associated free peptide as well as the fraction of the peptide residing at the surface of the bilayer.

[4] = target: the molecule itself; assay: thioflavin T fluorescence (peptide aggregation)

Row | Molecule | Level of fusion (lipid mixing) in DOPC/Chol LUVs [1] | Aggregation state in the presence of DOPC/Chol LUVs (ThT fluorescence) [2] | Aggregation state in aqueous medium (ThT fluorescence) [2] | Oligomerization in aqueous solution [2] | Oligomerization inside / interacting with the membrane [2] | Ksv (M^−1) in buffer [3] | Ksv (M^−1) in LUVs [3] | other results
1 | CC(C)[C@H](NC(=O)[C@@H](N)CCCNC(=N)N)C(=O)N[C@@H](CCC(=O)O)C(=O)N[C@@H](C)C(=O)N[C@@H](Cc1ccccc1)C(=O)N[C@@H](Cc1c[nH]cn1)C(=O)N[C@@H](CCCNC(=N)N)C(=O)N[C@@H](Cc1ccc(O)cc1)C(=O)O [HB258–265] (H-RVEAFHRY-OH) | lower levels of fusion compared to longer sequences |  |  |  |  |  |  | 
2 | CC[C@H](C)[C@H](NC(=O)CNC(=O)[C@H](CCSC)NC(=O)[C@H](Cc1ccccc1)NC(=O)[C@H](CCC(N)=O)NC(=O)[C@H](CO)NC(=O)[C@H](Cc1ccc(O)cc1)NC(=O)[C@H](CCCNC(=N)N)NC(=O)[C@H](Cc1c[nH]cn1)NC(=O)CNC(=O)[C@H](Cc1ccccc1)NC(=O)[C@H](Cc1c[nH]c2ccccc12)NC(=O)[C@@H](NC(=O)[C@H](CCC(N)=O)NC(=O)[C@H](CO)NC(=O)[C@@H](NC(=O)[C@@H](NC(=O)[C@@H](N)C(C)C)[C@@H](C)O)C(C)C)C(C)C)C(=O)N[C@@H](Cc1ccccc1)C(=O)O [HB168–186] (H-VTVSQVWFGHRYSQFMGIF-OH) |  | lower aggregation | already aggregated | high tendency to oligomerize | high tendency to oligomerize | 8.3 ± 0.2 M⁻¹ | 6.4 ± 0.4 M⁻¹ | Aggregation as a function of peptide concentration (ThT fluorescence) ([2]; buffer and DOPC/Chol LUVs, high concentrations (titration 1, 4, 8, 12, 16, 20 µM), 37°C): aggregated both in the aqueous medium and in LUVs; Fusogenic ability (lipid mixing) ([1]; LUVs of DOPG, DOPG/Chol, DOPC, DOPC/Chol, POPC/Chol, Triton X-100 = 100%, at least three repeats averaged): higher fusogenic ability
3 | CC(C)[C@H](N)C(=O)N[C@@H](Cc1c[nH]c2ccccc12)C(=O)N[C@@H](Cc1ccccc1)C(=O)NCC(=O)N[C@@H](Cc1c[nH]cn1)C(=O)N[C@@H](CCCNC(=N)N)C(=O)N[C@@H](Cc1ccc(O)cc1)C(=O)O [HB173–179] (H-VWFGHRY-OH) | lower levels of fusion compared to longer sequences |  |  |  |  |  |  | 
4 | CC(C)[C@H](NC(=O)[C@H](CCCNC(=N)N)NC(=O)[C@H](CO)NC(=O)[C@@H]1CCCN1C(=O)[C@H](CC(N)=O)NC(=O)[C@@H](N)Cc1ccc(O)cc1)C(=O)N[C@@H](CCC(=O)O)C(=O)N[C@@H](C)C(=O)N[C@@H](Cc1ccccc1)C(=O)N[C@@H](Cc1c[nH]cn1)C(=O)N[C@@H](CCCNC(=N)N)C(=O)N[C@@H](Cc1ccc(O)cc1)C(=O)NCC(=O)N[C@H](C(=O)N[C@H](C(=O)N[C@H](C(=O)N[C@@H](CC(N)=O)C(=O)O)C(C)C)[C@@H](C)O)[C@@H](C)O [HB254–270] (H-YNPSRVEAFHRYGTTVN-OH) |  | not aggregated | not aggregated | not oligomerized | able to oligomerize | 71.1 ± 1.1 M⁻¹ | 8.5 ± 0.1 M⁻¹ | 
5 | B1 |  |  |  |  |  |  |  | binding result [4]: binds
